Data from patent US8708475B2, “Ultraviolet crosslinking inkjet ink, ink cartridge containing same, and image forming method and apparatus using same” (Ricoh Company, Ltd., priority 2010, dated 2014).
Entries after “also recorded” stand apart in the source; their conditions may differ. Where two headings read alike, the source gives them in different places.

Assays:
[1] = in vivo; cited from earlier work
mice [2] = assay: LLNA method skin sensitization test (OECD Test Guideline 429), stimulation index from BrdU content of auricular lymph nodes; conditions: mouse, in vivo
mice [3] = conditions: mouse, in vivo
[4] = described in the MSDS; cited from earlier work
[5] = maximization method, Contact Dermatitis 8 223-235 (1982); cited from earlier work

| Compound | SI value, bound stated for listed methacrylates (mice [3]) | skin sensitization potential [5] | other results |
| --- | --- | --- | --- |
| C=C(C)C(=O)OCC(CC)(COC(=O)C(=C)C)COC(=O)C(=C)C [Trimethylolpropane trimethacrylate] |  |  | skin irritation potential (in words) [1]: low skin irritation potential; skin sensitization potential (in words) (mice [2]): low skin sensitization potential |
| Polyethylene glycol (400) dimethacrylate | less than 3 |  |  |
| C=C(C)C(=O)OCC(C)(C)COC(=O)C(=C)C [Neopentyl glycol dimethacrylate] |  |  | SI value, bound stated for listed methacrylates (mice [3]; female, 3 days): less than 3 |
| CSc1ccc(C(=O)C(C)(C)N2CCOCC2)cc1 [2-Methyl-1-[4-(methylthio)phenyl]-2-morphorinopropane-1-one] |  |  | skin sensitization potential [4]: no skin sensitization potential; also recorded: pane-1-one (nega- |
| C=CC(=O)OCC(CC)(COC(=O)C=C)COC(=O)C=C [Trimethylolpropane triacrylate] |  |  | skin irritation potential (in words) [1]: high skin irritation potential |
| C=C(C)C(=O)OC(C)(C)C [t-Butyl methacrylate] | less than 3 | negative skin sensitization potential |  |
| C=C(C)C(=O)OCCCCC [n-Pentyl methacrylate] | less than 3 | negative skin sensitization potential |  |
| C=C(C)C(=O)OCCCCCC [n-Hexyl methacrylate] | less than 3 | negative skin sensitization potential |  |
| Polyethylene glycol (600) dimethacrylate | less than 3 |  |  |
